Test results taken from PubChem BioAssay (NCI).
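Five compound concentrations were applied to cells in 96-well plates for 48 hours; endpoints were derived by simple linear interpolation of the resulting dose-response curve. TGI denotes the concentration required for complete inhibition of growth.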 *1 amine or outer side, *2 acyl side, *3 side chain or, on linkers, in order; H or OH if unused. Where a SMILES comes first, the peptide text is derived from it. [ ]: non-standard residue; d: D form. The star is where a group is joined. X31 = CC(=O)N(C)SCC(N[*:1])C(=O)[*:2]; Cbz = O=C(OCc1ccccc1)*; Bn = c1ccc(C*)cc1; For = O=C*

Columns and labels:
Assay in all cases: NCI anticancer screen, dose series, 48 h
786-0 renal = test system: 786-0 renal
A498 renal = test system: A498 renal
A549 NSCLC = test system: A549 NSCLC
ACHN renal = test system: ACHN renal
BT-549 breast = test system: BT-549 breast
CAKI-1 renal = test system: CAKI-1 renal
CCRF-CEM leukemia = test system: CCRF-CEM leukemia
COLO 205 colon = test system: COLO 205 colon
DU-145 prostate = test system: DU-145 prostate
EKVX NSCLC = test system: EKVX NSCLC
HCC-2998 colon = test system: HCC-2998 colon
HCT-116 colon = test system: HCT-116 colon
HCT-15 colon = test system: HCT-15 colon
HL-60(TB) leukemia = test system: HL-60(TB) leukemia
HOP-62 NSCLC = test system: HOP-62 NSCLC
HOP-92 NSCLC = test system: HOP-92 NSCLC
HS 578T breast = test system: HS 578T breast
HT29 colon = test system: HT29 colon
IGROV1 ovarian = test system: IGROV1 ovarian
K-562 leukemia = test system: K-562 leukemia
KM12 colon = test system: KM12 colon
LOX IMVI melanoma = test system: LOX IMVI melanoma
M14 melanoma = test system: M14 melanoma
MALME-3M melanoma = test system: MALME-3M melanoma
MCF7 breast = test system: MCF7 breast
MDA-MB-231 breast = test system: MDA-MB-231 breast
MDA-MB-435 = test system: MDA-MB-435
MDA-N = test system: MDA-N
MOLT-4 leukemia = test system: MOLT-4 leukemia
NCI-H226 lung = test system: NCI-H226 lung
NCI-H23 lung = test system: NCI-H23 lung
NCI-H460 lung = test system: NCI-H460 lung
NCI-H522 lung = test system: NCI-H522 lung
NCI/ADR-RES ovarian = test system: NCI/ADR-RES ovarian
OVCAR-3 ovarian = test system: OVCAR-3 ovarian
OVCAR-4 ovarian = test system: OVCAR-4 ovarian
OVCAR-5 ovarian = test system: OVCAR-5 ovarian
OVCAR-8 ovarian = test system: OVCAR-8 ovarian
PC-3 prostate = test system: PC-3 prostate
RPMI-8226 leukemia = test system: RPMI-8226 leukemia
SF-268 CNS = test system: SF-268 CNS
SF-295 CNS = test system: SF-295 CNS
SF-539 CNS = test system: SF-539 CNS
SK-MEL-2 melanoma = test system: SK-MEL-2 melanoma
SK-MEL-28 melanoma = test system: SK-MEL-28 melanoma
SK-MEL-5 melanoma = test system: SK-MEL-5 melanoma
SK-OV-3 ovarian = test system: SK-OV-3 ovarian
SN12C renal = test system: SN12C renal
SNB-19 CNS = test system: SNB-19 CNS
SNB-75 CNS = test system: SNB-75 CNS
SR leukemia = test system: SR leukemia
SW-620 colon = test system: SW-620 colon
T-47D breast = test system: T-47D breast
TK-10 renal = test system: TK-10 renal
U251 CNS = test system: U251 CNS
UACC-257 melanoma = test system: UACC-257 melanoma
UACC-62 melanoma = test system: UACC-62 melanoma
UO-31 renal = test system: UO-31 renal
RXF 393 renal = test system: RXF 393 renal

Q: How did the TGI (786-0 renal) turn out when `O=C1CCC2C(O)c3cc4c(cc3C(c3ccc5c(c3)OCO5)N12)OCO4` (stereo not given) was run?
A: > 100 µM

Q: And the TGI (A498 renal)?
A: > 100 µM

Q: And the TGI (A549 NSCLC)?
A: > 100 µM

Q: And the TGI (ACHN renal)?
A: > 100 µM

Q: What about the TGI (BT-549 breast) of the same compound?
A: > 100 µM

Q: And the TGI (CAKI-1 renal)?
A: > 100 µM

Q: And the TGI (CCRF-CEM leukemia)?
A: > 100 µM

Q: What about the TGI (COLO 205 colon) of the same compound?
A: > 100 µM

Q: And the TGI (DU-145 prostate)?
A: > 100 µM

Q: What about the TGI (EKVX NSCLC) of the same compound?
A: > 100 µM

Q: What about the TGI (HCC-2998 colon) of the same compound?
A: > 100 µM

Q: And the TGI (HCT-116 colon)?
A: > 100 µM

Q: What about the TGI (HCT-15 colon) of the same compound?
A: > 100 µM

Q: What about the TGI (HL-60(TB) leukemia) of the same compound?
A: > 100 µM

Q: What about the TGI (HOP-62 NSCLC) of the same compound?
A: 63.7 µM

Q: And the TGI (HOP-92 NSCLC)?
A: 66.8 µM

Q: What about the TGI (HS 578T breast) of the same compound?
A: 81.7 µM

Q: What about the TGI (HT29 colon) of the same compound?
A: > 100 µM

Q: What about the TGI (IGROV1 ovarian) of the same compound?
A: > 100 µM

Q: And the TGI (K-562 leukemia)?
A: > 100 µM

Q: And the TGI (KM12 colon)?
A: > 100 µM

Q: What about the TGI (LOX IMVI melanoma) of the same compound?
A: > 100 µM

Q: What about the TGI (M14 melanoma) of the same compound?
A: > 100 µM

Q: What about the TGI (MALME-3M melanoma) of the same compound?
A: > 100 µM

Q: And the TGI (MCF7 breast)?
A: > 100 µM

Q: What about the TGI (MDA-MB-231 breast) of the same compound?
A: > 100 µM

Q: What about the TGI (MDA-MB-435) of the same compound?
A: > 100 µM

Q: What about the TGI (MDA-N) of the same compound?
A: > 100 µM

Q: What about the TGI (MOLT-4 leukemia) of the same compound?
A: > 100 µM

Q: What about the TGI (NCI-H226 lung) of the same compound?
A: > 100 µM

Q: And the TGI (NCI-H23 lung)?
A: > 100 µM

Q: And the TGI (NCI-H460 lung)?
A: > 100 µM

Q: What about the TGI (NCI-H522 lung) of the same compound?
A: > 100 µM

Q: And the TGI (NCI/ADR-RES ovarian)?
A: > 100 µM

Q: What about the TGI (OVCAR-3 ovarian) of the same compound?
A: > 100 µM

Q: And the TGI (OVCAR-4 ovarian)?
A: > 100 µM

Q: And the TGI (OVCAR-5 ovarian)?
A: > 100 µM

Q: And the TGI (OVCAR-8 ovarian)?
A: > 100 µM

Q: What about the TGI (PC-3 prostate) of the same compound?
A: > 100 µM

Q: What about the TGI (RPMI-8226 leukemia) of the same compound?
A: > 100 µM

Q: And the TGI (SF-268 CNS)?
A: 52.5 µM

Q: What about the TGI (SF-295 CNS) of the same compound?
A: > 100 µM

Q: What about the TGI (SF-539 CNS) of the same compound?
A: > 100 µM

Q: What about the TGI (SK-MEL-2 melanoma) of the same compound?
A: > 100 µM

Q: And the TGI (SK-MEL-28 melanoma)?
A: > 100 µM

Q: What about the TGI (SK-MEL-5 melanoma) of the same compound?
A: > 100 µM

Q: What about the TGI (SK-OV-3 ovarian) of the same compound?
A: > 100 µM

Q: What about the TGI (SN12C renal) of the same compound?
A: > 100 µM

Q: And the TGI (SNB-19 CNS)?
A: > 100 µM

Q: And the TGI (SNB-75 CNS)?
A: 41.5 µM

Q: What about the TGI (SR leukemia) of the same compound?
A: > 100 µM

Q: What about the TGI (SW-620 colon) of the same compound?
A: > 100 µM

Q: And the TGI (T-47D breast)?
A: > 100 µM

Q: And the TGI (TK-10 renal)?
A: > 100 µM

Q: And the TGI (U251 CNS)?
A: 60.9 µM

Q: And the TGI (UACC-257 melanoma)?
A: > 100 µM

Q: And the TGI (UACC-62 melanoma)?
A: > 100 µM

Q: And the TGI (UO-31 renal)?
A: > 100 µM

Q: How did the TGI (786-0 renal) turn out when `CC(=O)N(C)SCC(NC(=O)C(Cc1ccccc1)NC(=O)OCc1ccccc1)C(=O)NC(Cc1ccccc1)C(=O)NC(Cc1cn(C=O)c2ccccc12)C(=O)NC(CCCCNC(=O)OCc1ccccc1)C(=O)NC(C(=O)NC(CSN(C)C(C)=O)C(=O)NC(C(N)=O)C(C)OCc1ccccc1)C(C)OCc1ccccc1` (stereo not given) (Cbz-F[X31]FW(For)K(Cbz)T(Bn)[X31]T(Bn)-NH2; configuration not given here) was run?
A: > 100 µM

Q: What about the TGI (A549 NSCLC) of the same compound?
A: > 100 µM

Q: And the TGI (ACHN renal)?
A: > 100 µM

Q: What about the TGI (BT-549 breast) of the same compound?
A: 68.1 µM

Q: What about the TGI (CCRF-CEM leukemia) of the same compound?
A: > 100 µM

Q: What about the TGI (COLO 205 colon) of the same compound?
A: > 100 µM

Q: What about the TGI (DU-145 prostate) of the same compound?
A: > 100 µM

Q: What about the TGI (EKVX NSCLC) of the same compound?
A: > 100 µM

Q: And the TGI (HCC-2998 colon)?
A: > 100 µM

Q: What about the TGI (HCT-116 colon) of the same compound?
A: > 100 µM

Q: What about the TGI (HCT-15 colon) of the same compound?
A: > 100 µM

Q: What about the TGI (HL-60(TB) leukemia) of the same compound?
A: > 100 µM

Q: What about the TGI (HOP-62 NSCLC) of the same compound?
A: > 100 µM

Q: What about the TGI (HOP-92 NSCLC) of the same compound?
A: 56.6 µM

Q: And the TGI (HS 578T breast)?
A: > 100 µM

Q: What about the TGI (HT29 colon) of the same compound?
A: > 100 µM

Q: What about the TGI (IGROV1 ovarian) of the same compound?
A: > 100 µM

Q: What about the TGI (K-562 leukemia) of the same compound?
A: > 100 µM

Q: What about the TGI (KM12 colon) of the same compound?
A: > 100 µM

Q: And the TGI (LOX IMVI melanoma)?
A: > 100 µM

Q: What about the TGI (M14 melanoma) of the same compound?
A: > 100 µM

Q: And the TGI (MALME-3M melanoma)?
A: > 100 µM

Q: What about the TGI (MCF7 breast) of the same compound?
A: > 100 µM

Q: And the TGI (MDA-MB-231 breast)?
A: 30.5 µM

Q: What about the TGI (MDA-MB-435) of the same compound?
A: > 100 µM

Q: And the TGI (MDA-N)?
A: > 100 µM

Q: What about the TGI (MOLT-4 leukemia) of the same compound?
A: > 100 µM

Q: What about the TGI (NCI-H226 lung) of the same compound?
A: > 100 µM

Q: And the TGI (NCI-H23 lung)?
A: > 100 µM

Q: And the TGI (NCI-H460 lung)?
A: > 100 µM

Q: And the TGI (NCI-H522 lung)?
A: > 100 µM

Q: What about the TGI (NCI/ADR-RES ovarian) of the same compound?
A: > 100 µM

Q: What about the TGI (OVCAR-3 ovarian) of the same compound?
A: > 100 µM

Q: And the TGI (OVCAR-4 ovarian)?
A: > 100 µM

Q: And the TGI (OVCAR-5 ovarian)?
A: > 100 µM

Q: And the TGI (OVCAR-8 ovarian)?
A: > 100 µM

Q: And the TGI (PC-3 prostate)?
A: > 100 µM

Q: And the TGI (RPMI-8226 leukemia)?
A: > 100 µM

Q: What about the TGI (RXF 393 renal) of the same compound?
A: 41.9 µM

Q: And the TGI (SF-268 CNS)?
A: > 100 µM

Q: And the TGI (SF-295 CNS)?
A: > 100 µM

Q: What about the TGI (SF-539 CNS) of the same compound?
A: > 100 µM

Q: What about the TGI (SK-MEL-2 melanoma) of the same compound?
A: 28.7 µM

Q: What about the TGI (SK-MEL-28 melanoma) of the same compound?
A: > 100 µM

Q: And the TGI (SK-MEL-5 melanoma)?
A: > 100 µM

Q: What about the TGI (SK-OV-3 ovarian) of the same compound?
A: 96.1 µM

Q: And the TGI (SN12C renal)?
A: > 100 µM

Q: What about the TGI (SNB-19 CNS) of the same compound?
A: 51.7 µM

Q: What about the TGI (SNB-75 CNS) of the same compound?
A: 36.9 µM

Q: And the TGI (SR leukemia)?
A: > 100 µM

Q: And the TGI (SW-620 colon)?
A: > 100 µM

Q: And the TGI (T-47D breast)?
A: > 100 µM

Q: And the TGI (TK-10 renal)?
A: 57.2 µM

Q: What about the TGI (U251 CNS) of the same compound?
A: > 100 µM

Q: And the TGI (UACC-257 melanoma)?
A: > 100 µM

Q: What about the TGI (UACC-62 melanoma) of the same compound?
A: > 100 µM

Q: And the TGI (UO-31 renal)?
A: > 100 µM
